Measurements as given in patent US7524980B2, “Vitamin D3 lactam derivative” (Teijin Pharma Limited, priority 2003, dated 2009).

System: HL-60 cell
Assay: Vitamin D3 antagonist effect: suppression of HL-60 cell differentiation (NBT-reducing activity) induced by 1α,25-dihydroxyvitamin D3
Format: cell-based
Conditions: simultaneous treatment with 1α,25-dihydroxyvitamin D3 1×10^−8 M; compound 1×10^−7 to 3×10^−6 M; 4 days; read-out: IC50 (suppression of NBT-reducing activity induction)
Description: (1) HL-60 cell line which had been purchased from a cell bank (Japanese Cancer Research Resource Bank, Cell No: JCRB0085) was used. The cell line was stored as a frozen storage stock to prevent cell characteristic changes attributable to successive cultivations. Prior to the initiation of experiments, the cells were defrosted and successive culturing was stared. For the experiments, cells whose successive culturing was from one month to about a half year were used. The successive culturing was carried out by centrifugally collecting cells which were in the state of suspension culture, and diluting the collected cell concentrate with a fresh culture medium at a ratio of about 1/100 (1-2×10^4 cells/ml). As the culture medium, an RPMI-1640 medium containing 10% fetal bovine serum was used.
(2) The cells which were under successive culturing in the above process (1) were centrifugally collected, and they were dispersed in a culture medium at the cell concentration of 2×10^4 cells/ml. […]
(3) As the parameter of differentiation inducing effect on HL-60 cells, the induction of nitro blue tetrazolium (henceforth, NBT)-reducing activity was used. The NBT-reducing activity was determined according to the following procedure. […] After air drying, it was stained with Kernechrot, and the ratio of the positive cells of NBT reduction activity was determined under an optical microscope. […]

- IC50: < 100 nM
SMILES: C=C1C(=CC=C2CCCC3(C)C2CCC3C(C)CC2CC(C)(O)C(=O)N2CCc2ccccc2)CC(O)CC1O (stereo not drawn) [Compound No. 61a, 1α,25-dihydroxyvitamin D3-26,23-lactam-N-(2-phenethyl)]
